Data from US11447466B2, “Substituted indole compounds useful as inhibitors of TLR7/8/9” (BRISTOL-MYERS SQUIBB COMPANY, priority 2017, dated 2022).

Key:
Format in all cases: cell-based
[1] = molecular target: T1, human TLR7 (Homo sapiens, UniProt Q9NYK1); assay: TLR7 inhibition reporter assay (HEK-Blue SEAP reporter, gardiquimod stimulation); details: HEK-Blue cells overexpressing human TLR7, SEAP reporter, gardiquimod 7.5 μM, 22 hour incubation
T1 construct: host or cells: HEK-Blue cells
T1 sequence (Q9NYK1 27-1049): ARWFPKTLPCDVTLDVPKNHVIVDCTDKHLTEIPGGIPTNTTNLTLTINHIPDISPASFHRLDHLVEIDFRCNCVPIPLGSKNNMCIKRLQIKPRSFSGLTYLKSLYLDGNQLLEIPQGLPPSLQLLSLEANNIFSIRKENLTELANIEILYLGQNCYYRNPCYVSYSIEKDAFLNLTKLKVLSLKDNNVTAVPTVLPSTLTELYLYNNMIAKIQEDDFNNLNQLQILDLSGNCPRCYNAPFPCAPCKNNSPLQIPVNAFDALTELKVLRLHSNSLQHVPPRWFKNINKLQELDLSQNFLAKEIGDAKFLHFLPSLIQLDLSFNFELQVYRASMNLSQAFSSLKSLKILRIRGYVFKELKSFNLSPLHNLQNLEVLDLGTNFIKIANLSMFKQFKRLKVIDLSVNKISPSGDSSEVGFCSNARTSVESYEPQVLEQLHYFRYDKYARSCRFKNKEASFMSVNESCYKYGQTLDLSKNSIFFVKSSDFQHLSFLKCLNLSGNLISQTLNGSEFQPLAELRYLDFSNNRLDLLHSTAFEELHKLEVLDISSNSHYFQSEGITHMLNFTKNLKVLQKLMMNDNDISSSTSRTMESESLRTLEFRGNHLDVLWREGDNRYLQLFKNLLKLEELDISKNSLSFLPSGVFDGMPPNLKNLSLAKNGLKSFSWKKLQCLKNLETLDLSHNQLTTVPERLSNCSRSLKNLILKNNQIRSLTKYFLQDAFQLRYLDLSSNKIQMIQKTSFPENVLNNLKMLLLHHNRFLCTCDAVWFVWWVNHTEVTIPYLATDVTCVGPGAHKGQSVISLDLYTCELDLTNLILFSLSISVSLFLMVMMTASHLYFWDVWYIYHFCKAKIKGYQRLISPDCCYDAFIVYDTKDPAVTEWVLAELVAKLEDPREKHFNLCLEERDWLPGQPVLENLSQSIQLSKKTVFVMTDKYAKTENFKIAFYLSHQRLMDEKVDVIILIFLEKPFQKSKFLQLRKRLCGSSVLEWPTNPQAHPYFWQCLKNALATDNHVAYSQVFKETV
Outline: (§1)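 Compound treatment: 30 min, RT, 0.05 nM–50 μM final. Agonist: TLR7 gardiquimod 7.5 μM; TLR8 R848 15.9 μM; TLR9 ODN2006 5 nM. Incubation 22 h, 37 °C, 5% CO2. Readout SEAP, HEK-Blue Detection.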

[2] = molecular target: T2, human TLR8 (Homo sapiens, UniProt Q9NR97); assay: TLR8 inhibition reporter assay (HEK-Blue SEAP reporter, R848 stimulation); details: HEK-Blue cells overexpressing human TLR8, SEAP reporter, R848 15.9 μM, 22 hour incubation
T2 construct: host or cells: HEK-Blue cells
T2 sequence (Q9NR97 27-1041): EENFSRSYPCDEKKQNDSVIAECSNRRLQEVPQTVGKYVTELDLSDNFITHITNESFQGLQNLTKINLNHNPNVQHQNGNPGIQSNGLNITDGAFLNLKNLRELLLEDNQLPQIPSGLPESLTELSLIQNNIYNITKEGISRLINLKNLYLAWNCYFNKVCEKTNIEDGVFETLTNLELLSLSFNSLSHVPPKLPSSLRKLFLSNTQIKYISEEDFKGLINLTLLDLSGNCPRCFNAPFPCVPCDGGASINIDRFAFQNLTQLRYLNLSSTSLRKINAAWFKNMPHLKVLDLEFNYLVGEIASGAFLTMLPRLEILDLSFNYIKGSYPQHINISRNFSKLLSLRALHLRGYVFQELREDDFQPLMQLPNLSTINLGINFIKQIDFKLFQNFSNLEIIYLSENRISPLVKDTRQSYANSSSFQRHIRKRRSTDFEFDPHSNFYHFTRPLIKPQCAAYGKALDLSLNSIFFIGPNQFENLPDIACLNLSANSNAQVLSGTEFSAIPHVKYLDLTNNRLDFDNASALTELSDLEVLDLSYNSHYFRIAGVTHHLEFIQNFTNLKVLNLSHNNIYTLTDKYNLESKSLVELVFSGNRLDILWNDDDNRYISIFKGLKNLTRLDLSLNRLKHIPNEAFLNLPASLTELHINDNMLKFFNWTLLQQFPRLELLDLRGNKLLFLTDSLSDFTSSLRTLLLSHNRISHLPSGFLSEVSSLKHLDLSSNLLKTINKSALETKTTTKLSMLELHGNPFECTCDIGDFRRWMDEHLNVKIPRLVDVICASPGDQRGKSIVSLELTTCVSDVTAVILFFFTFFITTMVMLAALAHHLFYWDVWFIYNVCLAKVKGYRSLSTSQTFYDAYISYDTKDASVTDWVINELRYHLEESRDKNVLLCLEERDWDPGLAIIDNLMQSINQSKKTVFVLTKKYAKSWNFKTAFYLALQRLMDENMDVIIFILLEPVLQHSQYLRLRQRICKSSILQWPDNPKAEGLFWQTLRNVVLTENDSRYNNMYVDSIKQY
Outline: as §1

[3] = molecular target: T3, human TLR9 (Homo sapiens, UniProt Q9NR96); assay: TLR9 inhibition reporter assay (HEK-Blue SEAP reporter, ODN2006 stimulation); details: HEK-Blue cells overexpressing human TLR9, SEAP reporter, ODN2006 5 nM, 22 hour incubation
T3 construct: host or cells: HEK-Blue cells
T3 sequence (Q9NR96 26-1032): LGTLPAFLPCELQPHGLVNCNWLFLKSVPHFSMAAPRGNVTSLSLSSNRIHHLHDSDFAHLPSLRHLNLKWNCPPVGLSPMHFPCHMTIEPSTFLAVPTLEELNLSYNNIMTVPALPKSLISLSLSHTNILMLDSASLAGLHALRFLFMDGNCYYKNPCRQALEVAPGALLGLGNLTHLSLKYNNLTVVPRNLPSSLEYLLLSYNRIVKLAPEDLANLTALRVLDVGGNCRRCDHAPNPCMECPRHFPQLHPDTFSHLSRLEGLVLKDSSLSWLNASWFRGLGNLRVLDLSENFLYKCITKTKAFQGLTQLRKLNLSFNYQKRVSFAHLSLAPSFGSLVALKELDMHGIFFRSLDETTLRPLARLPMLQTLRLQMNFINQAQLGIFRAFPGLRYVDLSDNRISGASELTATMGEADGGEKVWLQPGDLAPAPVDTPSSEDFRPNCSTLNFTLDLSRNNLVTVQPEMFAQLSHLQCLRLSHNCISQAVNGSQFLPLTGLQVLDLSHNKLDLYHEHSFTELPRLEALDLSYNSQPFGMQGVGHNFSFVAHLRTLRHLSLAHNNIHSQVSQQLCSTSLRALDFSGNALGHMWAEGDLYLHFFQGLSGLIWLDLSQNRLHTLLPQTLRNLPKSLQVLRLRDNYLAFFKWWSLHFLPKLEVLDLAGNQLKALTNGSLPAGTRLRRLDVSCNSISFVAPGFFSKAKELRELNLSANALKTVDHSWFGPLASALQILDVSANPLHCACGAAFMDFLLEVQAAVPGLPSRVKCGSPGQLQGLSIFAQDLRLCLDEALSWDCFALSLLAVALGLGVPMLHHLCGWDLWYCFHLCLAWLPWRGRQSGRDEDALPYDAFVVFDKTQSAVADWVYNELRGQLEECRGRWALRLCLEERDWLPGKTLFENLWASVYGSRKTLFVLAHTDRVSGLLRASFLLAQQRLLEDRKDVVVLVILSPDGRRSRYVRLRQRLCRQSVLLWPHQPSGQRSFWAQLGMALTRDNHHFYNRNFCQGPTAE
Outline: as §1

Work on `COc1cc(-c2[nH]c3ccc(C4CCN(C(=O)CN(C)C)CC4)cc3c2C(C)C)c(C)n(C)c1=O` [Example 275, 5-(5-(1-(dimethylglycyl)piperidin-4-yl)-3-isopropyl-1H-indol-2-yl)-3-methoxy-1,6-dimethylpyridin-2(1H)-one] yielded an IC50 [1] of 194 nM, an IC50 [2] of 95.7 nM and an IC50 [3] of 3190 nM.
`CNC(C)(C)C(=O)N1CCC(c2ccc3[nH]c(-c4cc(C)c(=O)n(C)c4)c(C(C)C)c3c2)CC1` [Example 298, 5-(3-isopropyl-5-(1-(2-methyl-2-(methylamino)propanoyl)piperidin-4-yl)-1H-indol-2-yl)-1,3-dimethylpyridin-2(1H)-one] was tested, and the IC50 [1] was 169 nM, the IC50 [2] was 148 nM and the IC50 [3] was 21300 nM.
`CC(C)c1c(-c2cn(C)c(=O)cn2)[nH]c2ccc(C3CCNCC3)cc12` [Example 4, 5-(3-isopropyl-5-(piperidin-4-yl)-1H-indol-2-yl)-1-methylpyrazin-2(1H)-one] was tested, and the IC50 [1] was 82.8 nM, the IC50 [2] was 38.4 nM and the IC50 [3] was 756 nM.
`Cc1c(-c2[nH]c3ccc(C4CCN(CCC(C)(C)O)CC4)cc3c2C(C)C)cn(C)c(=O)c1C` [Example 73, 5-(5-(1-(3-hydroxy-3-methylbutyl)piperidin-4-yl)-3-isopropyl-1H-indol-2-yl)-1,3,4-trimethylpyridin-2(1H)-one] was tested, and the IC50 [1] was 8 nM, the IC50 [2] was 3.3 nM and the IC50 [3] was 6070 nM.
With `Cc1cc(-c2[nH]c3ccc(C4CCN(C(C)C)CC4)cc3c2C(C)C)nn(C)c1=O` [Example 192, 6-(3-isopropyl-5-(1-isopropylpiperidin-4-yl)-1H-indol-2-yl)-2,4-dimethylpyridazin-3(2H)-one] the IC50 [1] was 6.4 nM, the IC50 [2] was 12 nM and the IC50 [3] was 2820 nM.
Compound `CC(C)c1c(-c2cc(-c3cncnc3)c(=O)n(C)c2)[nH]c2ccc(C3CCN(CC(C)(C)O)CC3)cc12` [Example 326, 5-(5-(1-(2-hydroxy-2-methylpropyl)piperidin-4-yl)-3-isopropyl-1H-indol-2-yl)-1-methyl-3-(pyrimidin-5-yl)pyridin-2(1H)-one] has an IC50 [1] of 6.1 nM, an IC50 [2] of 0.6 nM and an IC50 [3] of 1660 nM.
`COc1cc(-c2[nH]c3ccc(C4CCN(CC(=O)N(C)C)CC4)cc3c2C(C)C)cn(C)c1=O` [Example 128, 2-(4-(3-isopropyl-2-(5-methoxy-1-methyl-6-oxo-1,6-dihydropyridin-3-yl)-1H-indol-5-yl)piperidin-1-yl)-N,N-dimethylacetamide] was tested, and the IC50 [1] was 3 nM, the IC50 [2] was 5.7 nM and the IC50 [3] was 977 nM.
Compound `Cc1cc(-c2[nH]c3ccc(C4CCN(C5CCC(C(C)(C)O)CC5)CC4)cc3c2C(C)C)cn(C)c1=O` (stereo not drawn) [Example 267, 5-(5-(1-(4-(2-hydroxypropan-2-yl)cyclohexyl)piperidin-4-yl)-3-isopropyl-1H-indol-2-yl)-1,3-dimethylpyridin-2(1H)-one] has an IC50 [1] of 2.2 nM, an IC50 [2] of 6.6 nM and an IC50 [3] of 3540 nM.
In the case of `Cc1cc(-c2[nH]c3ccc(C4CCN(C(=O)C[C@H]5CCCN5)CC4)cc3c2C(C)C)cn(C)c1=O` [Example 306, (R)-5-(3-isopropyl-5-(1-(2-(pyrrolidin-2-yl)acetyl)piperidin-4-yl)-1H-indol-2-yl)-1,3-dimethylpyridin-2(1H)-one], the IC50 [1] is reported as 16.5 nM, the IC50 [2] is reported as 26.9 nM and the IC50 [3] is reported as 547 nM.
For `Cc1cc(-c2[nH]c3ccc(C4CCN(C5CCC(F)(F)CC5)CC4)cc3c2C(C)C)cn(C)c1=O` [Example 199, 5-(5-(1-(4,4-difluorocyclohexyl)piperidin-4-yl)-3-isopropyl-1H-indol-2-yl)-1,3-dimethylpyridin-2(1H)-one], the IC50 [1] was 1.9 nM, the IC50 [2] was 4.2 nM and the IC50 [3] was 1550 nM.
In the case of `Cc1cc(-c2[nH]c3ccc(C4CCN(C)CC4)cc3c2C(C)C)cn(CC(F)(F)F)c1=O` [Example 265, 5-(3-isopropyl-5-(1-methylpiperidin-4-yl)-1H-indol-2-yl)-3-methyl-1-(2,2,2-trifluoroethyl)pyridin-2(1H)-one], the IC50 [1] is reported as 20.1 nM, the IC50 [2] is reported as 42.6 nM and the IC50 [3] is reported as 5030 nM.
`Cc1cc(=O)n(C)nc1-c1[nH]c2ccc(C3CCNCC3)cc2c1C(C)C` [Example 10, 6-(3-isopropyl-5-(piperidin-4-yl)-1H-indol-2-yl)-2,5-dimethylpyridazin-3(2H)-one] showed an IC50 [1] of 330 nM, an IC50 [2] of 38.4 nM and an IC50 [3] of 1540 nM.
`Cc1c(-c2[nH]c3ccc(C4CCN(CC(=O)N(C)C)CC4)cc3c2C(C)C)cc(C#N)c(=O)n1C` [Example 145, 2-(4-(2-(5-cyano-1,2-dimethyl-6-oxo-1,6-dihydropyridin-3-yl)-3-isopropyl-1H-indol-5-yl)piperidin-1-yl)-N,N-dimethylacetamide] was tested, and the IC50 [1] was 63.8 nM, the IC50 [2] was 10.7 nM and the IC50 [3] was 7170 nM.
`Cc1c(-c2[nH]c3ccc(C4CCN(CC(C)(C)O)CC4)cc3c2C(C)C)cn(C)c(=O)c1C` [Example 315, 5-(5-(1-(2-hydroxy-2-methylpropyl)piperidin-4-yl)-3-isopropyl-1H-indol-2-yl)-1,3,4-trimethylpyridin-2(1H)-one] showed an IC50 [1] of 6.7 nM, an IC50 [2] of 1.8 nM and an IC50 [3] of 4940 nM.
